Values belong to the molecule of their own block, whether it stands above or below them.
Experiment: solvent given as SMILES

SMILES: CC(C)(C)c1ccc2c(c1)c1cc3c4cc(C(C)(C)C)ccc4c4c5c6ccc(C(C)(C)C)cc6c6cc7c8cc(C(C)(C)C)ccc8c8c2c1c(c34)c(c78)c65
- absorption maximum (in CCCCCC): 542.15 nm
- absorption maximum (in CCOCC): 541.57 nm
- absorption maximum (in Cc1ccccc1): 545.85 nm

SMILES: COc1cc2cc(C#Cc3ccc(/C=C(\C#N)C(=O)O)cc3)c(=O)oc2cc1OC
- absorption maximum (in CC#N): 398 nm

SMILES: CC(C)[Si]1(C(C)C)c2cc(C=C(C#N)C#N)ccc2-c2ccc(N(C)C)cc21
- absorption maximum (in C1CCCCC1): 480 nm
- absorption maximum (in CC#N): 475 nm
- absorption maximum (in CCO): 478 nm
- absorption maximum (in CCOCC): 469 nm
- absorption maximum (in CS(C)=O): 488 nm
- absorption maximum (in ClCCl): 489 nm
- absorption maximum (in c1ccccc1): 480 nm

SMILES: CC(=O)Nc1ccccc1C(=O)OC1CC(C)CCC1C(C)C (stereo unspecified)
- absorption maximum (in C1CCCCC1): 315 nm
- absorption maximum (in CC#N): 310 nm
- absorption maximum (in CCO): 310 nm
- absorption maximum (in CO): 307 nm
- absorption maximum (in Cc1ccccc1): 313 nm
- absorption maximum (in ClC(Cl)Cl): 312 nm
- absorption maximum (in ClCCl): 310 nm

SMILES: Cc1ccc2c(c1)c(C#N)c(C#N)c1cc(C)ccc12
- absorption maximum (in ClC(Cl)Cl): 343 nm

SMILES: O=C1CC(=O)Nc2cc(C(=O)O)ccc2N1
- absorption maximum (in CS(C)=O): 304 nm

SMILES: CN(C)c1ccc(/C=C/c2cccnn2)cc1
- absorption maximum (in C1CCOC1): 369 nm
- absorption maximum (in CC#N): 369 nm
- absorption maximum (in CS(C)=O): 380 nm
- absorption maximum (in ClCCl): 365 nm

SMILES: COC(=O)C(C)NC(=O)CCNc1cccc2ccccc12 (stereo unspecified)
- absorption maximum (in CCO): 331 nm

SMILES: O=C1c2cc(-n3c4ccccc4c4ccccc43)ccc2S(=O)(=O)c2ccc(-n3c4ccccc4c4ccccc43)cc21
- absorption maximum (in C1CCOC1): 406 nm
- absorption maximum (in CCCCCC): 406 nm
- absorption maximum (in Cc1ccccc1): 406 nm
- absorption maximum (in ClC(Cl)Cl): 406 nm
- absorption maximum (in ClCCl): 406 nm

SMILES: c1csc(-c2ccc(-c3cccs3)s2)c1
- absorption maximum (in CC#N): 351 nm
- absorption maximum (in ClCCl): 355 nm

SMILES: CC1(C)c2ccccc2N(c2c(F)cc(-c3nnc(-c4ccccc4)o3)cc2F)c2ccccc21
- absorption maximum (in Cc1ccccc1): 376 nm
- absorption maximum (in O=P(c1ccccc1)(c1ccccc1)c1ccccc1Oc1ccccc1P(=O)(c1ccccc1)c1ccccc1): 370 nm

SMILES: O=[N+]([O-])c1ccco1
- absorption maximum (in CO): 302 nm
- absorption maximum (in O): 313 nm

SMILES: CCOC(CN1C(=O)C2=C(c3ccsc3)N(CC(OCC)OCC)C(=O)C2=C1c1ccsc1)OCC
- absorption maximum (in ClC(Cl)Cl): 493 nm

SMILES: Cc1cc(C)c2c(c1)nc1c(=O)n(C)c(=O)nc-1n2C
- absorption maximum (in CC#N): 448 nm

SMILES: N#Cc1ccc(N(c2ccc(C#N)cc2)c2ccc3c4cccc5c(N(c6ccc(C#N)cc6)c6ccc(C#N)cc6)ccc(c6cccc2c63)c54)cc1
- absorption maximum (in C1CCCCC1): 446 nm
- absorption maximum (in C1CCOC1): 452 nm
- absorption maximum (in CC#N): 446 nm
- absorption maximum (in Cc1ccccc1): 451 nm
- absorption maximum (in ClCCl): 450 nm

SMILES: COc1ccc(C2=CC(c3ccccc3)=[N+]3C2=Nc2c(-c4ccc(OC)cc4)cc(-c4ccccc4)n2[B-]3(F)F)cc1
- absorption maximum (in Cc1ccccc1): 663 nm
- absorption maximum (in ClC(Cl)Cl): 664 nm

SMILES: Nc1nc(/C=C/c2ccc(N(c3ccccc3)c3ccccc3)cc2)cc(/C=C/c2ccc(N(c3ccccc3)c3ccccc3)cc2)n1
- absorption maximum (in Cc1ccccc1): 417 nm
- absorption maximum (in ClC(Cl)Cl): 432 nm

SMILES: CC(C)(C)c1ccc(-c2nc3c4ccc(-c5cc6ccccc6c6ccccc56)cc4c4cc(-c5cc6ccccc6c6ccccc56)ccc4c3n2-c2ccc(C(C)(C)C)cc2)cc1
- absorption maximum (in C1CCOC1): 325 nm
- absorption maximum (in C1COCCO1): 325 nm
- absorption maximum (in CC#N): 324 nm
- absorption maximum (in CCCCCC): 325 nm
- absorption maximum (in CCCCOCCCC): 326 nm
- absorption maximum (in CCN(CC)CC): 325 nm
- absorption maximum (in CCOC(C)=O): 324 nm
- absorption maximum (in CCOCC): 234 nm
- absorption maximum (in CN(C)C=O): 328 nm
- absorption maximum (in Cc1ccccc1): 327 nm
- absorption maximum (in ClC=C(Cl)Cl): 327 nm
- absorption maximum (in ClCCl): 328 nm

SMILES: CN(C)c1ccc(/C=C2\CC/C(=C\c3ccc(C#N)cc3)C2=O)cc1
- absorption maximum (in C1CCOC1): 458 nm
- absorption maximum (in CC#N): 456 nm
- absorption maximum (in CC(C)=O): 454 nm
- absorption maximum (in CC(C)O): 471 nm
- absorption maximum (in CCCCO): 473 nm
- absorption maximum (in CCCCOC(C)=O): 442 nm
- absorption maximum (in CCCO): 473 nm
- absorption maximum (in CCO): 472 nm
- absorption maximum (in CCOC(=O)c1ccccc1): 459 nm
- absorption maximum (in CCOC(C)=O): 446 nm
- absorption maximum (in CCOCC): 438 nm
- absorption maximum (in CN(C)C=O): 464 nm
- absorption maximum (in CO): 473 nm
- absorption maximum (in CS(C)=O): 471 nm
- absorption maximum (in Cc1ccccc1): 455 nm
- absorption maximum (in ClC(Cl)(Cl)Cl): 446 nm
- absorption maximum (in ClC(Cl)Cl): 469 nm
- absorption maximum (in ClCCl): 464 nm
- absorption maximum (in Clc1ccccc1Cl): 465 nm
- absorption maximum (in O=C1CCCC1): 460 nm
- absorption maximum (in S=C=S): 464 nm
- absorption maximum (in c1ccccc1): 457 nm
- absorption maximum (in c1ccncc1): 467 nm

SMILES: O=P1(c2ccccc2)C(c2ccc(N(c3ccccc3)c3ccccc3)cc2)=Cc2ccccc21 (stereo unspecified)
- absorption maximum (in C1CCOC1): 408 nm
- absorption maximum (in CC#N): 407 nm
- absorption maximum (in CN(C)C=O): 410 nm
- absorption maximum (in Cc1ccccc1): 413 nm
- absorption maximum (in ClC(Cl)Cl): 418 nm
- absorption maximum (in ClCCl): 415 nm

SMILES: CCCCc1cc(-c2cccc(COC)c2)oc1-c1cccc(-c2cc(CCCC)c(-c3cccc(-c4cc(CCCC)c(-c5cccc(-c6oc(-c7cccc(-c8oc(-c9cccc(-c%10oc(-c%11cccc(COC)c%11)cc%10CCCC)c9)cc8CCCC)c7)cc6CCCC)c5)o4)c3)o2)c1
- absorption maximum (in ClC(Cl)Cl): 337 nm

SMILES: COC(=O)CNC(=O)CCNc1cccc2ccccc12
- absorption maximum (in CCO): 330 nm

SMILES: Cc1cc(C(F)(F)F)nc2c1ccc1nc(-c3ccc(Cl)cc3)cn12
- absorption maximum (in CC#N): 362.6 nm
- absorption maximum (in CCCCCC): 376.5 nm
- absorption maximum (in CCCCOC(C)=O): 368.6 nm
- absorption maximum (in CCOC(C)=O): 368.2 nm
- absorption maximum (in CO): 359.6 nm
- absorption maximum (in Cc1ccccc1): 375.2 nm
- absorption maximum (in ClC(Cl)Cl): 369.2 nm
- absorption maximum (in ClCCl): 366.6 nm
- absorption maximum (in c1ccccc1): 375 nm

Continued, values first:

- absorption maximum (in CC#N): 710 nm
- absorption maximum (in ClCCl): 718 nm
SMILES: F[B-]1(F)n2c(-c3cccs3)cc(-c3ccccc3)c2N=C2C(c3ccccc3)=CC(c3cccs3)=[N+]21

- absorption maximum (in ClCCl): 500 nm
SMILES: CCCN1c2ccc(C3=C4C=CC=[N+]4[B-](F)(F)n4cccc43)cc2Sc2cc(C3=C4C=CC=[N+]4[B-](F)(F)n4cccc43)ccc21

- absorption maximum (in C1CCOC1): 354 nm
SMILES: c1ccc2c(c1)Cc1c-2sc2c1Cc1ccccc1-2

- absorption maximum (in CO): 354 nm
SMILES: N#Cc1ccc(N/N=C/c2cc(Cl)ccc2O)cc1

- absorption maximum (in CC#N): 579 nm
- absorption maximum (in CS(C)=O): 589 nm
- absorption maximum (in ClC(Cl)Cl): 588 nm
SMILES: C#CCn1c2ccccc2c2cc(/C=C/c3cc(C)c4n3[B-](F)(F)[N+]3=C(C)C=C(C)C3=C4c3ccc(I)cc3)ccc21

- absorption maximum (in CO): 432 nm
SMILES: C(=C\c1cc[n+]2ccc(/C=C/c3ccsc3)cc2c1)/c1ccsc1

- absorption maximum (in CC#N): 348 nm
SMILES: Cc1ccc(-c2ccc(/C=C/c3cccs3)cn2)nc1

- absorption maximum (in ClCCl): 314 nm
SMILES: CCCCN1C(=O)c2cccc3cc(C#CC#Cc4cc5c6c(cccc6c4)C(=O)N(CCCC)C5=O)cc(c23)C1=O

- absorption maximum (in ClCCl): 341 nm
SMILES: Cc1ccc(-c2ccc(C(=O)NC(C)(C)C)c3c2ccc2c4ccccc4c4ccccc4c23)cc1

- absorption maximum (in ClC(Cl)Cl): 495 nm
SMILES: CCn1c2ccccc2sc2c(C#N)c3[nH]c4ccccc4sc3c(C#N)c21

- absorption maximum (in CC#N): 427 nm
SMILES: CN(C)C1=Nc2cccc3cccc1c23

- absorption maximum (in ClC(Cl)Cl): 505 nm
SMILES: CC1=CC(C)=[N+]2C1=C(c1ccc(I)cc1)c1c(C)cc(C)n1[B-]2(Oc1ccc([N+](=O)[O-])cc1)Oc1ccc([N+](=O)[O-])cc1

- absorption maximum (in ClCCl): 364 nm
SMILES: Oc1cc(-c2cccs2)ccc1-c1nc2ccccc2s1

- absorption maximum (in ClCCl): 302 nm
SMILES: Cc1cc2cc(C)c3c4ccccc4[nH]c3c2o1

- absorption maximum (in ClC(Cl)Cl): 666 nm
SMILES: CCOC(=O)/C=C/C1=C(c2ccc(C)cc2)C2=Nc3c(-c4ccc(C)cc4)c(Br)c(-c4ccc(C)cc4)n3[B-](F)(F)[N+]2=C1c1ccc(C)cc1

- absorption maximum (in ClCCl): 525 nm
SMILES: Clc1nnc(Oc2ccc(N(c3ccccc3)c3ccccc3)cc2)nn1

- absorption maximum (in CCO): 640 nm
- absorption maximum (in CO): 637 nm
- absorption maximum (in CS(C)=O): 645 nm
- absorption maximum (in O): 634 nm
SMILES: CN1/C(=C/C=C(/C=C/C2=[N+](C)c3ccccc3C2(C)C)c2ccccc2)C(C)(C)c2ccccc21

- absorption maximum (in ClCCl): 507 nm
SMILES: c1ccc(C2=C(c3ccccc3)c3cccc4c3c(cc3nc5cc(-c6ccccc6)c(-c6ccccc6)cc5nc34)O2)cc1

- absorption maximum (in C1CCOC1): 286 nm
SMILES: F[Si](c1ccccc1)(c1ccccc1)c1cccc2ccccc12

- absorption maximum (in C1CCCCC1): 260.08 nm
SMILES: Cc1ccccc1-c1ccccc1C

- absorption maximum (in CC#N): 252 nm
- absorption maximum (in CCCCCC): 254 nm
SMILES: c1ccc(-n2cccc2)cc1

- absorption maximum (in CC#N): 371 nm
- absorption maximum (in CCCCO): 369 nm
- absorption maximum (in CCCO): 368 nm
- absorption maximum (in CCO): 366 nm
- absorption maximum (in CO): 364 nm
SMILES: Cc1cnc(NC(=O)C2=C([O-])c3ccccc3S(=O)(=O)N2C)s1

- absorption maximum (in C1CCCCC1): 391 nm
SMILES: COc1ccc2c3c(c4ccc(OC)cc4c2c1)C(C)(C)c1sccc1-3

- absorption maximum (in CCCCCC): 621 nm
- absorption maximum (in CCCCCCCCO): 625 nm
- absorption maximum (in CCOC(C)=O): 620 nm
- absorption maximum (in CN(C)C=O): 626 nm
- absorption maximum (in ClCCl): 618 nm
SMILES: CC1=CC(C)=[N+]2C1=Cc1c3ccccc3c(C#Cc3cccs3)n1[B-]2(F)F

- absorption maximum (in ClCCl): 425 nm
SMILES: CC(C)(C)c1ccc(N(c2ccc(C(C)(C)C)cc2)c2cc(N(c3ccc(C(C)(C)C)cc3)c3ccc(C(C)(C)C)cc3)c3ccc4cc(C(C)(C)C)cc5ccc2c3c54)cc1

- absorption maximum (in CC#N): 348 nm
- absorption maximum (in CCCCCCCCCCCCCCCC): 337 nm
- absorption maximum (in CO): 356 nm
- absorption maximum (in ClC(Cl)Cl): 344 nm
- absorption maximum (in c1ccccc1): 343 nm
SMILES: CC(C)(C)C1Nc2ccccc2C(=O)N1c1ccccc1 (stereo unspecified)

- absorption maximum (in O): 458 nm
SMILES: N#Cc1c(N2CCCCC2)cc(-c2cccs2)c2c1-c1cccc3cccc-2c13

- absorption maximum (in C1CCCCC1): 446 nm
SMILES: CCCCc1cc2cccc[n+]2[b-]2c(-c3cccc4[b-]3[n+]3ccccc3cc4CCCC)cccc21

From the Deep4Chem optical property database
